Results on 4 compounds are retold here after US12115256B2, “Targeted liposomal gemcitabine and methods thereof” (L.E.A.F. HOLDINGS GROUP LLC, priority 2016, dated 2024).

In data set [1] the target is T1, Reduced folate carrier (RFC) (Homo sapiens, UniProt P41440).
T1 sequence (P41440 1-591): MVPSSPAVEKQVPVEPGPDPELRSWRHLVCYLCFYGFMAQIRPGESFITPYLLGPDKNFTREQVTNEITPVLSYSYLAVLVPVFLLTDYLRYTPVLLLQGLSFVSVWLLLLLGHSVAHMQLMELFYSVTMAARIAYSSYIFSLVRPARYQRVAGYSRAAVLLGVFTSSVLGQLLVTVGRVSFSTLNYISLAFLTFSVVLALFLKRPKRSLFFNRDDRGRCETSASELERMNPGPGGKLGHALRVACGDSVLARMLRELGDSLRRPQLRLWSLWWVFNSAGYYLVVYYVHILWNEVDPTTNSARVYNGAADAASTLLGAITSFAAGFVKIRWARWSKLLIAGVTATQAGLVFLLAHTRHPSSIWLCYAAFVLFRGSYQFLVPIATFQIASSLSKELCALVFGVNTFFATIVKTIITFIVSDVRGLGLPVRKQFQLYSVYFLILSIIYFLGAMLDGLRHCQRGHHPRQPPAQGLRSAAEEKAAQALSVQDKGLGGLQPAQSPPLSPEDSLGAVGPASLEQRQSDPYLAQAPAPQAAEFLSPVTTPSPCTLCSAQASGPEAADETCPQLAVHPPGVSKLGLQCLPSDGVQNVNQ
Conditions: read-out: Binding affinity, Km; cited from earlier work.

In a further data set the target is Folate receptor α (FRα) (Homo sapiens, UniProt P15328). Conditions: read-out: Binding affinity, Kd; cited from earlier work.
In data set [2] the test system is SKBR3 breast cancer cells. The data set is described as follows: MTS cell proliferation assay, SKBR3. Conditions: Homo sapiens, SK-BR-3, 96 h, 4 days. The data set is classed as cell-based. From the text:
(§1) Cells lines used in the experiments are commercially available from sources such as the ATCC (American Type Culture Collection of Manassas, Virginia, U.S.A). The cell lines, their ATCC accession numbers and growth conditions are listed below. • NCI-H2452 (ATCC® CRL-5946TH); RPMI-1640 (Cat. #30-2001); 10% HI FBS; 1% Pen/Strep; 1% L-Glutamine. • PANC-1 (ATCC® CRL-1469TH); Dulbecco's Modified Eagle's Medium (DMEM) (ATCC® 30-2002TM) 10% HI FBS; 1% Pen/Strep; 1% L-Glutamine • SKBR3; McCoy 5A Medium; 10% HI FBS; 1% Pen/Strep; 1% L-Glutamine.
(§2) Cancer cell lines were seeded in 96 well plates on day 0 at optimal cell numbers. On day 1, drug formulations were added at 2-fold serial dilutions. The cells were incubated for 3-5 days and the level of inhibition of cellular proliferation was measured by the MTS assay (3-(4,5-dimethylthiazol-2-yl)-5-(3-carboxymethoxyphenyl)-2-(4-sulfophenyl)-2H-tetrazolium assay). The commercially available MTS Cell Proliferation Assay Kit (Colorimetric) (197010) is a colorimetric sensitive quantification of viable cells in proliferation and cytotoxicity assay. […]
(§3) On day 4, the effect on cellular proliferation was measured with MTS assay. […] The plates were incubated for 2 hours at 37° C. and the absorbance was measured at 490 nm. […]
(In general: Formazan colour is commonly taken as a measure of viable cells.)

Data set [3] concerns CD34+ stem cells (hematopoietic progenitor cells) differentiating into neutrophils. The data set is classed as cell-based. Conditions: human, 2 days. From the text:
The level of a molecule called CD15 is elevated on more mature neutrophils. This molecule is elevated on cells in the circles drawn on the plots.
FIG. 8. Neutrophil differentiation assay. One of the major side effects from gemcitabine treatment is the reduction of neutrophils in the bloodstream that counter infections. This is the result of CD34+ stem cells not differentiating, or developing, into mature neutrophils in the bone marrow. We measured the effect of targeted liposomal gemcitabine on neutrophil differentiation compared to the same dose of gemcitabine (10 and 50 μM.) Hematopoietic progenitor cells (CD34+) were purchased and treated with a panel of growth factors to induce neutrophil differentiation.
CD34+ stem cells were cultured without (A) or with (B) cytokines (growth factors) that induce neutrophil differentiation in vitro, including stem cell factor, IL-3, and […] for 2 days. […] By day 2, there is a dramatic increase in mature neutrophils depicted in the oval. […] The cells within the drawn gate (FIG. 8B) are larger, more complex maturing neutrophils that are lacking in FIG. 8A.
In more detail, experiments were performed as follows: CD34+ stem cells were obtained from ATCC. CD34+ cells were thawed at 37° C. for 1 minute. While on ice, the cells were transferred to cold stem cell medium (“StemSpan SFEM”—Stem Cell Tech. cat. #9650), 10% heat […] fetal bovine serum (HI FBS.) Each vial contained approximated 5×10^5 cell/ml. The cells were placed in 96 well tissue culture plates 35,000 cell/well.
The neutrophils GROWTH media contained 100 ng/ml of stem cell factor human (SCF-Sigma H8416, lot #MKBT8036V), 20 ng/ml of granulocyte colony-stimulation factor, human (G-CSF-Sigma H5541, lot #SLBC9602V), 10 ng/ml of IL3 recombinant human (Sigma SRP3090, lot #1008AFC13) in StemSpam media as above.
The cells were also treated as follows 1) StemSpam media alone with no growth cytokines; 2) StemSpam media+growth cytokines, and 3) Gemcitabine, Targeted Liposomal Gemcitabine and non-Targeted Liposomal Gemcitabine in amounts as indicated. […]

The subject of data set [4] is NCI-H2452 lung (mesothelioma) cancer cells. Description: MTS cell proliferation assay, NCI-H2452. The data set is classed as cell-based. Conditions: Homo sapiens, 96 h, 4 days, MTS (FIG. 2).
Text: as §1, §2, §3

Data set [5] deals with HPAF-II pancreatic cancer cells. The data set is described as follows: MTS cell proliferation assay, HPAF-II. The data set is classed as cell-based. Conditions: Homo sapiens, 96 h, 4 days. The procedure:
HPAF-II ATCC CRL-1997; Eagle's Minimum Essential Medium (EMEM) (ATCC® 30-2003Tm)); 10% HI FBS; 1% Pen/Strep; 1% L-Glutamine.
Cancer cell lines were seeded in 96 well plates on day 0 at optimal cell numbers. On day 1, drug formulations were added at 2-fold serial dilutions. The cells were incubated for 3-5 days and the level of inhibition of cellular proliferation was measured by the MTS assay (3-(4,5-dimethylthiazol-2-yl)-5-(3-carboxymethoxyphenyl)-2-(4-sulfophenyl)-2H-tetrazolium assay). The commercially available MTS Cell Proliferation Assay Kit (Colorimetric) (197010) is a colorimetric sensitive quantification of viable cells in proliferation and cytotoxicity assay. The assay is based on the reduction of MTS tetrazolium compound by viable cells to generate a colored formazan product that is soluble in cell culture media.
The MTS experiments are performed as follows: The night before, the cells are seeded according to the amount of cells required for each cell line in 96 well tissue culture plate. Final volume in each well is 100 μL (see Table of cell lines for reference; all cell lines obtained from ATCC).
The seeded cells are incubated at 37° C. and 5% CO 2 overnight. […]
as §3

In data set [6] the test system is PANC-1 pancreatic cancer cells. The data set is described as follows: MTS cell proliferation assay, PANC-1. Conditions: Homo sapiens, 96 h, 4 days. The data set is classed as cell-based.
Text: as §1, §2, §3

Read-outs that look alike come from different tables or passages of the source.

Sequence of Folate receptor α (FRα) (P15328 25-234, species assumed): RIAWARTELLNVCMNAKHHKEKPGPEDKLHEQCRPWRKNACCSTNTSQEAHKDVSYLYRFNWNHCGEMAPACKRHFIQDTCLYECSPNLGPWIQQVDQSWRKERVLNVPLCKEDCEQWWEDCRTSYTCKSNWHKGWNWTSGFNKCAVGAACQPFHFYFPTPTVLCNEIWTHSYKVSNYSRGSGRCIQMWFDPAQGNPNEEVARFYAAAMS

A word on the Km: it is the concentration of substrate that gives half-maximal velocity. As for `CN(Cc1cnc2nc(N)nc(N)c2n1)c1ccc(C(=O)N[C@@H](CCC(=O)O)C(=O)O)cc1` [methotrexate], the Km in data set [1] is 1 to 5 µM.

What is called Kd is the equilibrium constant for the complex coming apart. For `CN1c2c(nc(N)[nH]c2=O)NCC1CNc1ccc(C(=O)N[C@@H](CCC(=O)O)C(=O)O)cc1` (some centres unmarked) [5-mTHF, 5-methyltetrahydrofolate], the dissociation constant (Kd) on Folate receptor α (FRα) was 0.001 to 0.01 µM. Also, the Michaelis constant (Km) in data set [1] was 1 to 10 µM.

With `Nc1nc2ncc(CNc3ccc(C(=O)N[C@@H](CCC(=O)O)C(=O)O)cc3)nc2c(=O)[nH]1` [folic acid], the Km in data set [1] was 200 to 400 µM.

A word on the IC50: it is the concentration at which inhibition is half-maximal. Lower therefore signals inhibition by little substance. With `Nc1ccn([C@@H]2O[C@H](CO)[C@@H](O)C2(F)F)c(=O)n1` [Gemcitabine, gemcitabine], the IC50 in data set [2] came out at 297 µM; in data set [4], 30.4 µM; in data set [5] it was 9.11 µM; in data set [6] it was 11 µM. The “Number of live cells within the neutrophil gate (CD15+)” value in data set [3] is given as “less than 100”. In addition, the “Percentage of live cells within the neutrophil gate” value is listed as “less than 5%” in data set [3] (10 μM) and “less than 20%” in data set [3] (50 μM).
